Experiments:
[1] = target: JAK2 kinase (Homo sapiens (Human), UniProt O60674); assay: Assay for inhibiting JAK2 kinase (in vitro kinase assay, HRP anti-phosphotyrosine antibody/TMB absorbance); format: biochemical; details: 20 μM ATP, 50 minutes at room temperature; read-out: IC50 (JAK2/Bio)
Description: In vitro activity of compounds of the present invention for inhibiting JAK2 kinase was determined by the following method.

[2] = target: JAK1 kinase (Homo sapiens (Human), UniProt P23458); assay: Assay for inhibiting JAK1 kinase (in vitro kinase assay, HRP anti-phosphotyrosine antibody/TMB absorbance); format: biochemical; details: 20 μM ATP, 50 minutes at room temperature; read-out: IC50 (JAK1/Bio)
Description: In vitro activity of compounds of the present invention for inhibiting JAK1 kinase was determined by the following method.
IC50 values of test compounds was calculated from the data of the test compounds in inhibiting the activity of JAK1 kinase at different concentrations.

[3] = Pharmacokinetics assay in rats, intragastric administration, plasma by LC/MS/MS; format: in vivo, Sprague-Dawley (SD) rats; details: both sexes, Sprague-Dawley, rat, plasma, po, SD rats, 10 mg/kg
Description: Rats were used as test animals. […] The pharmacokinetic behavior of the compounds of the present invention was studied and evaluated in rats.
56 Healthy adult Sprague-Dawley (SD) rats, half male and half female, purchased from SINO-BRITSH SIPPR/BK LAB.
The appropriate amount of test compounds were weighed and mixed with 1.0 mL of dimethyl sulfoxide to prepare a 1.0 mg/mL suspension.
After an overnight fast, SD rats were administered intragastrically at a dose of 10.0 mg/kg and an administration volume of 10 mL/kg.
The plasma samples were stored at −20° C. The rats were fed 2 hours after administration.
Content determination of the test compounds in rat plasma after intragastrically administering at different concentrations: 50 μL of rat plasmas taken at various time points after administration were mixed with 50 μL of internal standard solution and 100 μL of methanol and mixed for 3 minutes by a vortexer. The mixture was centrifuged for 10 minutes at 13,500 rpm. 10 μL of the supernatant was taken from the plasma sample and analyzed by LC-MS/MS.
Pharmacokinetic Parameters of the compounds of the present invention were shown as follows: […]

Chain of JAK1 kinase (P23458 whole entry): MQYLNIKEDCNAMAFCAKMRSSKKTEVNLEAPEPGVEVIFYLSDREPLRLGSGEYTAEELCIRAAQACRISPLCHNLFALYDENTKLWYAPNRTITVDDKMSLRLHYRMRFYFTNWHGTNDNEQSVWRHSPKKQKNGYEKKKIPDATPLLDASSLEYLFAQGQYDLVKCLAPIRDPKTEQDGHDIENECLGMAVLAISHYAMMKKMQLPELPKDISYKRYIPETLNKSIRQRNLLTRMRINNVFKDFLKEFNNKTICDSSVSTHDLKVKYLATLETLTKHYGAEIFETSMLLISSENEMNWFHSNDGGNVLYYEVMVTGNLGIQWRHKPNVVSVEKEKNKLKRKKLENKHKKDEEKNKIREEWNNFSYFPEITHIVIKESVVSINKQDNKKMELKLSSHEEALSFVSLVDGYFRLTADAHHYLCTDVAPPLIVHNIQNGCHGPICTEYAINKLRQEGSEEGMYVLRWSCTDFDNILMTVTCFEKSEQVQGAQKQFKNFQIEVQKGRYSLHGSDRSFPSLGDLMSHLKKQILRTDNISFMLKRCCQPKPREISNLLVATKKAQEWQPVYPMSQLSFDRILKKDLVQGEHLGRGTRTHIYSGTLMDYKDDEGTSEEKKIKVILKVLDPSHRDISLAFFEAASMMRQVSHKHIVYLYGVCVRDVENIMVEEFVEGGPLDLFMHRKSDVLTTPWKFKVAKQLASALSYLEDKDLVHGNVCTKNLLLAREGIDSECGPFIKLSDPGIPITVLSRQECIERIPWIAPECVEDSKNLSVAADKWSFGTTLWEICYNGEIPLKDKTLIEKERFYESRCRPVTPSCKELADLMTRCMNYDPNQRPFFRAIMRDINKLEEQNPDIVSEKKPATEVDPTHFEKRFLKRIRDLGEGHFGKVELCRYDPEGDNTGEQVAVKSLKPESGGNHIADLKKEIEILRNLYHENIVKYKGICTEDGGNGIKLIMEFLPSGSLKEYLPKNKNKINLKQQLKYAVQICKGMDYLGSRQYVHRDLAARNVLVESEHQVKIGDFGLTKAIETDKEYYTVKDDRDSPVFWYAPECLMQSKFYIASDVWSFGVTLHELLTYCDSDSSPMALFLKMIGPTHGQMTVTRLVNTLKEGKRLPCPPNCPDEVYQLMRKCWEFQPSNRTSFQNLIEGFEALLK
Chain of JAK2 kinase (O60674 whole entry): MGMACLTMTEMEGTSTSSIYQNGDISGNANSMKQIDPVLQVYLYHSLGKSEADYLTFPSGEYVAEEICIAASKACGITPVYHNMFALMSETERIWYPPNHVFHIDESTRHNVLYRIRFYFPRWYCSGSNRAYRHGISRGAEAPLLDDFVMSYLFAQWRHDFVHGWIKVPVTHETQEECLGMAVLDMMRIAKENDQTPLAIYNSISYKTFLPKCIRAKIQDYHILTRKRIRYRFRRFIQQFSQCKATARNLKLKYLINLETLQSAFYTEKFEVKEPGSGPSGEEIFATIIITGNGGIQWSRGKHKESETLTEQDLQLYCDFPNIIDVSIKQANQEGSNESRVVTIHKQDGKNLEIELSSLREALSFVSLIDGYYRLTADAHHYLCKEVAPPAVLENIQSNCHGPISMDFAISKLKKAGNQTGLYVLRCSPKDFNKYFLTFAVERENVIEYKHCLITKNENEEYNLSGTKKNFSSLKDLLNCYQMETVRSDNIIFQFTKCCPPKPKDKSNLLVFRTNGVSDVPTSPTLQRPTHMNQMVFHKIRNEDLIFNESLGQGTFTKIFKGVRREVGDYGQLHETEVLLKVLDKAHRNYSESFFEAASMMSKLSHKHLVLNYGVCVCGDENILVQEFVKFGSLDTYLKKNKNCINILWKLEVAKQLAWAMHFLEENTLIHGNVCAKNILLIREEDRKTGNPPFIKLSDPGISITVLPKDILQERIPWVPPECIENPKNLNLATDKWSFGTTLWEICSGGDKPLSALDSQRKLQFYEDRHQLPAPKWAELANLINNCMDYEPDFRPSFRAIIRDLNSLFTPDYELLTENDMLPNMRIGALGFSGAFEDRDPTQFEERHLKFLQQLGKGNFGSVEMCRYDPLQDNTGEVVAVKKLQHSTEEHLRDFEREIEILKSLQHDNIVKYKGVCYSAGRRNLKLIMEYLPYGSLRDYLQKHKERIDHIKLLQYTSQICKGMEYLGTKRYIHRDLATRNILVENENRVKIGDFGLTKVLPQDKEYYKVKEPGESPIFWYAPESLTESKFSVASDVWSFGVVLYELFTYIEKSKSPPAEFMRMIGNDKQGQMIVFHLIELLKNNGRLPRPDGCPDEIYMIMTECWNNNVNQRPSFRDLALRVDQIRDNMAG

| Compound | IC50 [2] [µM] | IC50 [1] [µM] | other results |
| --- | --- | --- | --- |
| CN(C[C@H]1[C@@H]2CN(C(=O)C3CC3)C[C@@H]21)c1ncnc2[nH]ccc12 [Example 135, cyclopropyl((1R,5S,6S)-6-((methyl(7H-pyrrolo[2,3-d]pyrimidin-4-yl)amino)methyl)-3-azabicyclo[3.1.0]hexan-3-yl)methanone] |  | 0.002 |  |
| CN(c1ncnc2[nH]ccc12)[C@@H]1C[C@@H]2CN(CCC#N)C[C@@H]2C1 [Example 68, 3-((3aR,5R,6aS)-5-(methyl(7H-pyrrolo[2,3-d]pyrimidin-4-yl)amino)hexahydrocyclopenta[c]pyrrol-2(1H)-yl)propanenitrile] | 0.017 | 0.018 |  |
| COC(=O)N1CC[C@H]2CC(N(C)c3ncnc4[nH]ccc34)C[C@H]2C1 (stereo partly drawn) [Example 36, (4aS,7aR)-Methyl 6-(methyl(7H-pyrrolo[2,3-d]pyrimidin-4-yl)amino) hexahydro-1H-cyclopenta[c]pyridine-2(3H)-carboxylate] | 0.025 | 0.075 |  |
| CN(c1ncnc2[nH]ccc12)C1C[C@@H]2CCN(C(=O)CC#N)C[C@@H]2C1 (stereo partly drawn) [Example 39, 3-((4aS,7aR)-6-(Methyl(7H-pyrrolo[2,3-d]pyrimidin-4-yl)amino)hexahydro-1H-cyclopenta[c]pyridin-2(3H,4H,4aH,5H,6H,7H,7aH)-yl)-3-oxopropanenitrile] | 0.034 | 0.113 |  |
| C[C@H](O)C(=O)N1C[C@H]2C[C@H](N(C)c3ncnc4[nH]ccc34)C[C@H]2C1 [Example 17, (S)-2-Hydroxy-1-((3aR,5R,6aS)-5-(methyl(7H-pyrrolo[2,3-d]pyrimidin-4-yl)amino)hexahydrocyclopenta[c]pyrrol-2(1H)-yl)propan-1-one] | 0.0002 |  | Vd/F ([3]; read-out: Apparent Distribution Volume Vz/F): 6.2 ± 1.69 L/kg; AUC ([3]; read-out: Area Under Curve AUC): 4760 ± 1680 ng·h/mL; CL/F ([3]; read-out: Clearance CL/F): 38.7 ± 13.7 mL/min/kg; half-life ([3]; read-out: Half-Life t½ (converted)): 2.03 ± 0.82 h; Cmax ([3]; read-out: Plasma Conc. Cmax): 1480 ± 177 ng/mL |
| CN(c1ncnc2[nH]ccc12)C1C[C@@H]2CCN(C(=O)CO)C[C@@H]2C1 (stereo partly drawn) [Example 37, 2-Hydroxy-1-((4aS,7aR)-6-(methyl(7H-pyrrolo[2,3-d]pyrimidin-4-yl)amino)hexahydro-1H-cyclopenta[c]pyridin-2(3H,4H,4aH,5H,6H,7H,7aH)-yl)ethanone] | 0.05 | 0.072 |  |
| COC(=O)CN1C[C@@H]2[C@H](C1)[C@H]2CN(C)c1ncnc2[nH]ccc12 [Example 134, methyl 2-((1R,5S,6R)-6-((methyl(7H-pyrrolo[2,3-d]pyrimidin-4-yl)amino)methyl)-3-azabicyclo[3.1.0]hexan-3-yl)acetate] |  | 0.06 |  |
| COc1nsc(NC(=O)N2CC[C@H]3CC(N(C)c4ncnc5[nH]ccc45)C[C@H]3C2)n1 (stereo partly drawn) [Example 38, (4aS,7aR)—N-(3-Methoxy-1,2,4-thiadiazol-5-yl)-6-(methyl(7H-pyrrolo[2,3-d]pyrimidin-4-yl)amino)hexahydro-1H-cyclopenta[c]pyridine-2(3H)-carboxamide] |  | 0.007 |  |
| CN(c1ncnc2[nH]ccc12)[C@H]1C[C@@H]2CN(CCC#N)C[C@@H]2C1 [Example 27, 3-((3aR,5S,6aS)-5-(Methyl(7H-pyrrolo[2,3-d]pyrimidin-4-yl)amino)hexahydrocyclopenta[c]pyrrol-2(1H)-yl)propanenitrile] | 0.03 |  |  |
| C[C@@H](O)C(=O)N1C[C@H]2C[C@@H](N(C)c3ncnc4[nH]ccc34)C[C@H]2C1 [Example 72, (R)-2-hydroxy-1-((3aR,5R,6aS)-5-(methyl(7H-pyrrolo[2,3-d]pyrimidin-4-yl)amino)hexahydrocyclopenta[c]pyrrol-2(1H)-yl)propan-1-one] | 0.042 |  |  |
| Cc1nsc(N2C[C@H]3C[C@H](N(C)c4ncnc5[nH]ccc45)C[C@H]3C2)n1 [Example 65, N-methyl-N-((3aR,5S,6aS)-2-(3-methyl-1,2,4-thiadiazol-5-yl)octahydrocyclopenta[c]pyrrol-5-yl)-7H-pyrrolo[2,3-d]pyrimidin-4-amine] |  | 0.179 |  |

Second part, led by results:

| IC50 [2] [µM] | Compound | IC50 [1] [µM] | other results |
| --- | --- | --- | --- |
| 0.004 | COc1nnc(NC(=O)N2C[C@H]3C[C@H](N(C)c4ncnc5[nH]ccc45)C[C@H]3C2)s1 [Example 155, (3aR,5S,6aS)-N-(5-methoxy-1,3,4-thiadiazol-2-yl)-5-(methyl(7H-pyrrolo[2,3-d]pyrimidin-4-yl)amino)hexahydrocyclopenta[c]pyrrole-2(1H)-carboxamide] | 0.041 |  |
| 0.023 | COc1nsc(NC(=O)N2C[C@H]3C[C@H](N(C)c4ccnc5[nH]ccc45)C[C@H]3C2)n1 [Example 113, (3aR,5S,6aS)-N-(3-methoxy-1,2,4-thiadiazol-5-yl)-5-(methyl(1H-pyrrolo[2,3-b]pyridin-4-yl)amino)hexahydrocyclopenta[c]pyrrole-2(1H)-carboxamide] | 0.178 |  |
| 0.048 | Cc1cc(NC(=O)N2C[C@H]3C[C@H](N(C)c4ncnc5[nH]ccc45)C[C@H]3C2)sn1 [Example 119, (3aR,5S,6aS)-5-(methyl(7H-pyrrolo[2,3-d]pyrimidin-4-yl)amino)-N-(3-methylisothiazol-5-yl)hexahydrocyclopenta[c]pyrrole-2(1H)-carboxamide] |  |  |
| 0.021 | CN(c1ncnc2[nH]ccc12)[C@@H]1C[C@@H]2CN(C(=O)CO)C[C@@H]2C1 [Example 23, 2-Hydroxy-1-((3aR,5R,6aS)-5-(methyl(7H-pyrrolo[2,3-d]pyrimidin-4-yl)amino)hexahydrocyclopenta[c]pyrrol-2(1H)-yl)ethanone] |  |  |
| 0.07 | CC[C@H](O)C(=O)N1C[C@H]2C[C@H](N(C)c3ncnc4[nH]ccc34)C[C@H]2C1 [Example 93, (S)-2-hydroxy-1-((3aR,5R,6aS)-5-(methyl(7H-pyrrolo[2,3-d]pyrimidin-4-yl)amino)hexahydrocyclopenta[c]pyrrol-2(1H)-yl)butan-1-one] |  |  |
| 0.08 | CN(c1ncnc2[nH]ccc12)[C@H]1C[C@@H]2CN(S(=O)(=O)C3CC3)C[C@@H]2C1 [Example 15, N-((3aR,5S,6aS)-2-(Cyclopropylsulfonyl)octahydrocyclopenta[c]pyrrol-5-yl)-N-methyl-7H-pyrrolo[2,3-d]pyrimidin-4-amine] |  |  |
| 0.015 | COc1cncc(NC(=O)N2C[C@H]3C[C@H](N(C)c4ncnc5[nH]ccc45)C[C@H]3C2)c1 [Example 109, (3aR,5S,6aS)-N-(5-methoxypyridin-3-yl)-5-(methyl(7H-pyrrolo[2,3-d]pyrimidin-4-yl)amino)hexahydrocyclopenta[c]pyrrole-2(1H)-carboxamide] |  |  |
| 0.049 | CC(C#N)C(=O)N1C[C@H]2C[C@H](N(C)c3ncnc4[nH]ccc34)C[C@H]2C1 (stereo partly drawn) [Example 82, 2-methyl-3-((3aR,5S,6aS)-5-(methyl(7H-pyrrolo[2,3-d]pyrimidin-4-yl)amino)hexahydrocyclopenta[c]pyrrol-2(1H)-yl)-3-oxopropanenitrile] |  |  |
| 0.119 | Cc1ncc(NC(=O)N2C[C@H]3C[C@H](N(C)c4ncnc5[nH]ccc45)C[C@H]3C2)s1 [Example 124, (3aR,5S,6aS)-5-(methyl(7H-pyrrolo[2,3-d]pyrimidin-4-yl)amino)-N-(2-methylthiazol-5-yl)hexahydrocyclopenta[c]pyrrole-2(1H)-carboxamide] |  |  |

From US9527851B2, “Pyrrole six-membered heteroaryl ring derivative, preparation method thereof, and medicinal uses thereof” (Jiangsu Hengrui Medicine Co., Ltd., priority 2011, dated 2016)
